What was measured:
Assay type in all cases: in vivo, Wistar rats
[1] = tested on: physical dependence from morphine (morphine abstinence); assay: Morphine abstinence syndrome, signs scored in the open field test; settings: Morphine − (morphine + compound); compound 3 x 20 mg/kg intramuscularly; one value for the three compounds
[2] = tested on: nitrites and nitrates (NOx-); assay: Measurement of nitrates/nitrites (NOx-) in brain regions after the morphine abstinence experiment; settings: 3 x 20 mg/kg intramuscularly
Summary of the method: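 Rat brain regions homogenized in 20 mM HEPES pH 7.5 at 4 °C; deproteinized supernatants treated with nitrate reductase, 25 μM NADPH, 25 μM FAD (37 °C, 30 min), then DAN in acid; naphthotriazole fluorescence (ex 365/em 405 nm) against sodium nitrate standard, expressed as nmol/mg protein (Bradford).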

[3] = tested on: nitric oxide synthase (NOS); assay: Nitric oxide synthase activity in brain regions, radiometric [3H]L-citrulline method; settings: 3 x 20 mg/kg intramuscularly
Summary of the method: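 Rat cortex, hippocampus, mesencephalon, striatum, brainstem, hypothalamus and cerebellum were homogenized in 20 mM HEPES pH 7.5, and the 11000 g supernatant was incubated 15-60 min at 37 °C with [3H]L-arginine, 0.2 mM CaCl2, FAD, FMN, NADPH and BH4. [3H]L-citrulline was counted after Dowex removal of arginine. Ca2+-dependent/independent activity was split using EDTA ± L-NAME, per mg Bradford protein.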

[4] = Groups Nos. 3-14, compound without morphine, one value for all 12 compounds
[5] = Morphine + compound, one value for the three compounds

| SMILES | Authentic differences (ξ-square criterion) in appearance of signs of abstinence: <<Wet dog>> shakes [1] | Authentic differences (ξ-square criterion) in appearance of signs of abstinence: Aggression [1] | Authentic differences (ξ-square criterion) in appearance of signs of abstinence: Convulsions [1] | Authentic differences (ξ-square criterion) in appearance of signs of abstinence: Diarrhea [1] | Authentic differences (ξ-square criterion) in appearance of signs of abstinence: Dyspnea [1] | Authentic differences (ξ-square criterion) in appearance of signs of abstinence: Forelimb jogging [1] | Authentic differences (ξ-square criterion) in appearance of signs of abstinence: Grit with teeth [1] | Authentic differences (ξ-square criterion) in appearance of signs of abstinence: Mastication [1] | Authentic differences (ξ-square criterion) in appearance of signs of abstinence: Piloerection [1] | Authentic differences (ξ-square criterion) in appearance of signs of abstinence: Ptosis [1] | Authentic differences (ξ-square criterion) in appearance of signs of abstinence: Rhinorrhea [1] | Authentic differences (ξ-square criterion) in appearance of signs of abstinence: Squeak when touched [1] | Nitrites, brainstem [2, 4] | Nitrites, cerebellum [2, 4] | Nitrites, cerebral cortex [2, 4] | Nitrites, hippocampus [2, 4] | Nitrites, hypothalamus [2, 4] | Nitrites, midbrain [2, 4] | Nitrites, striatum [2, 4] | Nitrites, brainstem [2, 5] | also measured |
| --- | --- | --- | --- | --- | --- | --- | --- | --- | --- | --- | --- | --- | --- | --- | --- | --- | --- | --- | --- | --- | --- |
| O=C([O-])c1ccc2c(=O)[nH][nH]c(=O)c2c1.O=C([O-])c1ccc2c(=O)[nH][nH]c(=O)c2c1.[Na+].[Na+] [Compound 18, disodium salt of 6-carboxy-benzo [d]-3H-pyridazine-1,4-dione] | 0.7562 | 0.8456 | 0.7546 | 0.0032 | 0.0834 | 0.8217 | 0.8652 | 0.1032 | 0.2567 | 0.0320 | 0.4032 | 0.1342 | 6.31 ± 0.58 nmol/mg of protein | 6.66 ± 0.63 nmol/mg of protein | 4.31 ± 0.37 nmol/mg of protein | 6.47 ± 0.72 nmol/mg of protein | 6.77 ± 0.83 nmol/mg of protein | 6.65 ± 0.70 nmol/mg of protein | 6.11 ± 0.29 nmol/mg of protein | 6.99 ± 0.82 nmol/mg of protein | Nitrites, cerebellum [2, 5]: 5.85 ± 0.47 nmol/mg of protein; Nitrites, cerebral cortex [2, 5]: 4.93 ± 0.39 nmol/mg of protein; Nitrites, hippocampus [2, 5]: 5.24 ± 0.49 nmol/mg of protein; Nitrites, hypothalamus [2, 5]: 6.91 ± 0.58 nmol/mg of protein; Nitrites, midbrain [2, 5]: 5.75 ± 0.39 nmol/mg of protein; Nitrites, striatum [2, 5]: 3.57 ± 0.42 nmol/mg of protein; Activity of NOS, hippocampus [3, 4]: 3.09 ± 0.16 nmol/min/mg of protein; Activity of NOS, hypothalamus [3, 4]: 5.45 ± 0.24 nmol/min/mg of protein; Activity of NOS, midbrain [3, 4]: 2.60 ± 0.29 nmol/min/mg of protein; Activity of NOS, striatum [3, 4]: 1.26 ± 0.08 nmol/min/mg of protein; Activity of NOS, hippocampus [3, 5]: 2.51 ± 0.19 nmol/min/mg of protein; Activity of NOS, hypothalamus [3, 5]: 5.36 ± 0.33 nmol/min/mg of protein; Activity of NOS, midbrain [3, 5]: 1.99 ± 0.29 nmol/min/mg of protein; Activity of NOS, striatum [3, 5]: 1.29 ± 0.09 nmol/min/mg of protein |
| O=c1[nH][nH]c(=O)c2c(Br)ncnc12.[K] [Compound 37, potassium salt of 4-bromine-pyrimido[4,5-d]-6H-pyridazine-5,8-dione] | 1.0000 | 0.8456 | 0.5578 | 0.0001 | 0.0685 | 0.9321 | 0.7003 | 0.1888 | 0.2345 | 0.0232 | 0.2935 | 0.2035 | 6.31 ± 0.58 nmol/mg of protein | 6.66 ± 0.63 nmol/mg of protein | 4.31 ± 0.37 nmol/mg of protein | 6.47 ± 0.72 nmol/mg of protein | 6.77 ± 0.83 nmol/mg of protein | 6.65 ± 0.70 nmol/mg of protein | 6.11 ± 0.29 nmol/mg of protein | 6.87 ± 0.81 nmol/mg of protein | Nitrites, cerebellum [2, 5]: 5.93 ± 0.54 nmol/mg of protein; Nitrites, cerebral cortex [2, 5]: 4.84 ± 0.31 nmol/mg of protein; Nitrites, hippocampus [2, 5]: 5.31 ± 0.33 nmol/mg of protein; Nitrites, hypothalamus [2, 5]: 6.77 ± 0.46 nmol/mg of protein; Nitrites, midbrain [2, 5]: 5.95 ± 0.52 nmol/mg of protein; Nitrites, striatum [2, 5]: 3.57 ± 0.42 nmol/mg of protein; Activity of NOS, hippocampus [3, 4]: 3.09 ± 0.16 nmol/min/mg of protein; Activity of NOS, hypothalamus [3, 4]: 5.45 ± 0.24 nmol/min/mg of protein; Activity of NOS, midbrain [3, 4]: 2.60 ± 0.29 nmol/min/mg of protein; Activity of NOS, striatum [3, 4]: 1.26 ± 0.08 nmol/min/mg of protein; Activity of NOS, hippocampus [3, 5]: 2.65 ± 0.15 nmol/min/mg of protein; Activity of NOS, hypothalamus [3, 5]: 5.56 ± 0.34 nmol/min/mg of protein; Activity of NOS, midbrain [3, 5]: 1.89 ± 0.27 nmol/min/mg of protein; Activity of NOS, striatum [3, 5]: 1.34 ± 0.09 nmol/min/mg of protein |
| Nc1ccc2c(=O)n([C@@H]3O[C@H](CO)[C@@H](O)[C@H]3O)[nH]c(=O)c2c1.[Na] [Compound 11, sodium salt of 6-amino-2-(β-D-ribofuranosile)benzo[d]-3H-pyridazine-1,4-dione] | 0.7562 | 0.8456 | 0.7546 | 0.0032 | 0.0834 | 0.8217 | 0.8652 | 0.1032 | 0.2567 | 0.0320 | 0.4032 | 0.1342 | 6.31 ± 0.58 nmol/mg of protein | 6.66 ± 0.63 nmol/mg of protein | 4.31 ± 0.37 nmol/mg of protein | 6.47 ± 0.72 nmol/mg of protein | 6.77 ± 0.83 nmol/mg of protein | 6.65 ± 0.70 nmol/mg of protein | 6.11 ± 0.29 nmol/mg of protein | 6.99 ± 0.82 nmol/mg of protein | Nitrites, cerebellum [2, 5]: 5.85 ± 0.47 nmol/mg of protein; Nitrites, cerebral cortex [2, 5]: 4.93 ± 0.39 nmol/mg of protein; Nitrites, hippocampus [2, 5]: 5.24 ± 0.49 nmol/mg of protein; Nitrites, hypothalamus [2, 5]: 6.91 ± 0.58 nmol/mg of protein; Nitrites, midbrain [2, 5]: 5.75 ± 0.39 nmol/mg of protein; Nitrites, striatum [2, 5]: 3.57 ± 0.42 nmol/mg of protein; Activity of NOS, hippocampus [3, 4]: 3.09 ± 0.16 nmol/min/mg of protein; Activity of NOS, hypothalamus [3, 4]: 5.45 ± 0.24 nmol/min/mg of protein; Activity of NOS, midbrain [3, 4]: 2.60 ± 0.29 nmol/min/mg of protein; Activity of NOS, striatum [3, 4]: 1.26 ± 0.08 nmol/min/mg of protein; Activity of NOS, hippocampus [3, 5]: 2.51 ± 0.19 nmol/min/mg of protein; Activity of NOS, hypothalamus [3, 5]: 5.36 ± 0.33 nmol/min/mg of protein; Activity of NOS, midbrain [3, 5]: 1.99 ± 0.29 nmol/min/mg of protein; Activity of NOS, striatum [3, 5]: 1.29 ± 0.09 nmol/min/mg of protein |

— patent publication US7776833B2, “Use of cyclic bioisosters of purine system derivatives for treating diseases produced by disorders of niterergic and dopaminergic systems” (priority 2003, dated 2010)
